From US11622991B2, “Protocol for treatment of lupus nephritis” (Aurinia Pharmaceuticals Inc., priority 2017, dated 2023)

Tested on: lupus nephritis
Assay: Predictability of week 48 partial remission from early reduction in UPCR (Tables 4-8)
Format: in vivo, human
Protocol: In the study reported in Example 1, the predictability of outcomes based on markers at early time points were determined.
This is important because it is undesirable to subject a patient to unnecessary treatment, even if the treatment is relatively safe.
PR is defined as at least 50% reduction in proteinuria (i.e. UPCR).
Sensitivity is defined as the probability that a subject showing PR at 48 weeks would have shown a favorable result with regard to the marker at the designated early time point. In the tables below, this is the ratio of the number of subjects with favorable marker results (early drop or normalization) to the total subjects with 48 week PR.
Specificity is defined as the probability that a subject not showing PR at 48 weeks would have shown an unfavorable result with regard to the marker at the designated early time point. In the tables below, this is the ratio of the number of subjects with unfavorable marker results (no early drop or no normalization) to the total subjects with no 48 week PR.
Positive predictive value is defined as the probability that a subject showing a favorable result with respect to the marker at an earlier time point would show PR at 48 weeks. In the tables below, this is the ratio of the number of subjects with favorable marker results who have 48 week PR to those with favorable marker results (early reduction or yes column).
Negative predictive value is defined as the probability that a subject showing an unfavorable result with respect to the marker at an earlier time point would not show PR at 48 weeks. In the tables below, this is the ratio of the number of subjects with unfavorable marker results who have no PR at 48 weeks to the total subjects with unfavorable marker results (no early reduction or no column).

[1] = 15% reduction in UPCR, Week 2, 23.7 mg BID
[2] = 15% reduction in UPCR, Week 2, 39.5 mg BID
[3] = 15% reduction in UPCR, Week 4, 23.7 mg BID
[4] = 15% reduction in UPCR, Week 6, 39.5 mg BID
[5] = 15% reduction in UPCR, Week 8, 39.5 mg BID
[6] = 15% reduction in UPCR, Week 12, 23.7 mg BID
[7] = 15% reduction in UPCR, Week 12, 39.5 mg BID
[8] = 15% reduction in UPCR, Week 16, 23.7 mg BID
[9] = 15% reduction in UPCR, Week 20, 23.7 mg BID
[10] = 15% reduction in UPCR, Week 20, 39.5 mg BID
[11] = 15% reduction in UPCR, Week 24, 23.7 mg BID
[12] = 15% reduction in UPCR, Week 26, 23.7 mg BID
[13] = 15% reduction in UPCR, Week 26, 39.5 mg BID
[14] = 15% reduction in UPCR, Week 36, 23.7 mg BID
[15] = 15% reduction in UPCR, Week 36, 39.5 mg BID
[16] = 15% reduction in UPCR, Week 48, 23.7 mg BID
[17] = 20% reduction in UPCR, Week 2, 23.7 mg BID
[18] = 20% reduction in UPCR, Week 2, 39.5 mg BID
[19] = 20% reduction in UPCR, Week 4, 23.7 mg BID
[20] = 20% reduction in UPCR, Week 6, 23.7 mg BID
[21] = 20% reduction in UPCR, Week 8, 23.7 mg BID
[22] = 20% reduction in UPCR, Week 8, 39.5 mg BID
[23] = 20% reduction in UPCR, Week 12, 23.7 mg BID
[24] = 20% reduction in UPCR, Week 12, 39.5 mg BID
[25] = 20% reduction in UPCR, Week 16, 23.7 mg BID
[26] = 20% reduction in UPCR, Week 20, 23.7 mg BID
[27] = 20% reduction in UPCR, Week 20, 39.5 mg BID
[28] = 20% reduction in UPCR, Week 24, 23.7 mg BID
[29] = 20% reduction in UPCR, Week 26, 23.7 mg BID
[30] = 20% reduction in UPCR, Week 26, 39.5 mg BID
[31] = 20% reduction in UPCR, Week 36, 23.7 mg BID
[32] = 20% reduction in UPCR, Week 36, 39.5 mg BID
[33] = 20% reduction in UPCR, Week 48, 23.7 mg BID
[34] = 25% reduction in UPCR, Week 2, 23.7 mg BID
[35] = 25% reduction in UPCR, Week 2, 39.5 mg BID
[36] = 25% reduction in UPCR, Week 4, 23.7 mg BID
[37] = 25% reduction in UPCR, Week 6, 23.7 mg BID
[38] = 25% reduction in UPCR, Week 8, 23.7 mg BID
[39] = 25% reduction in UPCR, Week 8, 39.5 mg BID
[40] = 25% reduction in UPCR, Week 12, 23.7 mg BID
[41] = 25% reduction in UPCR, Week 12, 39.5 mg BID
[42] = 25% reduction in UPCR, Week 16, 23.7 mg BID
[43] = 25% reduction in UPCR, Week 20, 23.7 mg BID
[44] = 25% reduction in UPCR, Week 20, 39.5 mg BID
[45] = 25% reduction in UPCR, Week 24, 23.7 mg BID
[46] = 25% reduction in UPCR, Week 24, 39.5 mg BID

C=C/C=C/C[C@@H](C)[C@@H](O)[C@H]1C(=O)N[C@@H](CC)C(=O)N(C)CC(=O)N(C)[C@@H](CC(C)C)C(=O)N[C@@H](C(C)C)C(=O)N(C)[C@@H](CC(C)C)C(=O)N[C@@H](C)C(=O)N[C@H](C)C(=O)N(C)[C@@H](CC(C)C)C(=O)N(C)[C@@H](CC(C)C)C(=O)N(C)[C@@H](C(C)C)C(=O)N1C [voclosporin]
16: Week 48 Partial Remission No Early Drop [1] | No Week 48 Partial Remission No Early Drop [17] | No Week 48 Partial Remission No Early Drop [34] | Week 48 Partial Remission No Early Drop (25% reduction in UPCR, Week 4, 39.5 mg BID)
33: Early Reduction No [17] | Week 48 Partial Remission Early Drop [35]
2: Week 48 Partial Remission No Early Drop [6] | Early Reduction No [11] | No Week 48 Partial Remission No Early Drop [11] | Early Reduction No [16] | No Week 48 Partial Remission No Early Drop [16] | Week 48 Partial Remission No Early Drop [23] | Week 48 Partial Remission No Early Drop [32] | Early Reduction No [33] | No Week 48 Partial Remission No Early Drop [33]
11: No Week 48 Partial Remission No Early Drop [3] | Early Reduction No (15% reduction in UPCR, Week 16, 39.5 mg BID) | No Week 48 Partial Remission No Early Drop [19] | No Week 48 Partial Remission Early Drop [20] | No Week 48 Partial Remission Early Drop [21] | Early Reduction No (20% reduction in UPCR, Week 16, 39.5 mg BID) | No Week 48 Partial Remission Early Drop [28] | Early Reduction No (20% reduction in UPCR, Week 24, 39.5 mg BID) | No Week 48 Partial Remission No Early Drop [36] | Week 48 Partial Remission No Early Drop [36] | No Week 48 Partial Remission Early Drop [42] | No Week 48 Partial Remission Early Drop [43] | No Week 48 Partial Remission Early Drop [45]
9: No Week 48 Partial Remission No Early Drop [2] | Week 48 Partial Remission No Early Drop [3] | Early Reduction No [5] | Early Reduction No [7] | Early Reduction No [10] | No Week 48 Partial Remission Early Drop [12] | No Week 48 Partial Remission Early Drop [16] | Early Reduction No [24] | Early Reduction No [25] | Early Reduction No [27] | No Week 48 Partial Remission Early Drop [29] | No Week 48 Partial Remission Early Drop [33] | No Week 48 Partial Remission No Early Drop [38] | Early Reduction No [41] | Early Reduction No [44]
8: Early Reduction No [8] | No Week 48 Partial Remission Early Drop [17] | No Week 48 Partial Remission No Early Drop [21] | Early Reduction No [32] | No Week 48 Partial Remission Early Drop [34] | No Week 48 Partial Remission No Early Drop [37] | Week 48 Partial Remission No Early Drop [37]
7: No Week 48 Partial Remission No Early Drop (15% reduction in UPCR, Week 8, 23.7 mg BID) | Early Reduction No [15] | No Week 48 Partial Remission No Early Drop [20] | Early Reduction No [23] | No Week 48 Partial Remission No Early Drop [42] | Week 48 Partial Remission No Early Drop (25% reduction in UPCR, Week 16, 39.5 mg BID) | No Week 48 Partial Remission No Early Drop [46] | Week 48 Partial Remission No Early Drop [46]
3: Week 48 Partial Remission No Early Drop [8] | Early Reduction No [9] | No Week 48 Partial Remission No Early Drop [9] | Early Reduction No [12] | No Week 48 Partial Remission No Early Drop [12] | No Week 48 Partial Remission No Early Drop [14] | Week 48 Partial Remission No Early Drop [25] | No Week 48 Partial Remission No Early Drop [28] | Early Reduction No [29] | No Week 48 Partial Remission No Early Drop [29] | No Week 48 Partial Remission No Early Drop [31] | Week 48 Partial Remission No Early Drop [42] | No Week 48 Partial Remission No Early Drop [45]
30: Early Reduction No [1] | Early Reduction No [2]
1: Week 48 Partial Remission No Early Drop [14] | Week 48 Partial Remission No Early Drop [15] | Week 48 Partial Remission No Early Drop [28] | Week 48 Partial Remission No Early Drop [31] | Week 48 Partial Remission No Early Drop [43] | Week 48 Partial Remission No Early Drop [45]
4: No Week 48 Partial Remission No Early Drop [4] | No Week 48 Partial Remission No Early Drop [5] | No Week 48 Partial Remission No Early Drop [6] | No Week 48 Partial Remission No Early Drop [7] | Week 48 Partial Remission No Early Drop [10] | Early Reduction No [13] | No Week 48 Partial Remission No Early Drop [13] | Early Reduction No [14] | No Week 48 Partial Remission No Early Drop [22] | No Week 48 Partial Remission No Early Drop [24] | Early Reduction No [26] | No Week 48 Partial Remission No Early Drop [26] | Week 48 Partial Remission No Early Drop [27] | Early Reduction No [28] | Early Reduction No [30] | No Week 48 Partial Remission No Early Drop [30] | Early Reduction No [31] | No Week 48 Partial Remission No Early Drop [39] | Week 48 Partial Remission No Early Drop [40] | No Week 48 Partial Remission No Early Drop [41] | Week 48 Partial Remission No Early Drop [44] | Early Reduction No [45] | Early Reduction No (25% reduction in UPCR, Week 26, 23.7 mg BID)
34: Early Reduction No [18]
10: No Week 48 Partial Remission Early Drop [1] | Week 48 Partial Remission No Early Drop [4] | Early Reduction No (15% reduction in UPCR, Week 24, 39.5 mg BID) | No Week 48 Partial Remission Early Drop [14] | No Week 48 Partial Remission Early Drop (15% reduction in UPCR, Week 48, 39.5 mg BID) | No Week 48 Partial Remission No Early Drop [18] | Week 48 Partial Remission No Early Drop [19] | Week 48 Partial Remission No Early Drop (20% reduction in UPCR, Week 6, 39.5 mg BID) | Early Reduction No [22] | No Week 48 Partial Remission Early Drop [31] | No Week 48 Partial Remission Early Drop (20% reduction in UPCR, Week 48, 39.5 mg BID) | No Week 48 Partial Remission No Early Drop [35] | No Week 48 Partial Remission Early Drop [37] | No Week 48 Partial Remission Early Drop [38] | Early Reduction No [39] | Early Reduction No [40] | Early Reduction No [42]
